Legend:
Type in all cases: physicochemical
[1] = Hygroscopicity after one month storage in closed containers; design: key: 1: non-hygroscopic, no visible change observed; 2: slightly hygroscopic, aggregation and lumping developed, loss of flowability; 3: hygroscopic, semi-solid material; 4: deliquescent, liquefied syrup-like product; conditions: after one month in closed containers at room temperature in atmospheric air (relative humidity ~50-80%)
Experimental: The hygroscopicity was determined after one month in closed containers at room temperature in atmospheric air (relative humidity ˜50-80%)
The observed samples could be divided into four groups in accordance to their hygroscopic properties:
1=non-hygroscopic, no visible change observed
2=slightly hygroscopic, aggregation and lumping developed, loss of flowability
3=hygroscopic, semi-solid material
4=deliquescent, liquefied syrup-like product

[2] = Water content by thermal gravimetric analysis (TGA); conditions: solid product
Experimental: (§1) Thermal gravimetric analysis (TGA) was applied for measuring amounts of volatiles (residual solvents and water) in the solid. Water content was measured by Karl Fischer method (KF).

[3] = Water content by Karl Fischer method (KF); conditions: solid product
Experimental: as §1

Hygroscopicity [1]: 1
Water content, % By TGA [2]: < 0.1%
Water content, % By KF [3]: 0.1%
SMILES: C#CCN[C@@H]1CCc2ccccc21 [Rasagiline base, R(+)-N-propargyl-l-aminoindan]

— patent US7547806B2, “Tannate salt of rasagiline” (Teva Pharmaceutical Industries, Ltd., priority 2006, dated 2009)
